Measured values reported in publication PMC6154534, “New Benzimidazole-1,2,4-Triazole Hybrid Compounds: Synthesis, Anticandidal Activity and Cytotoxicity Evaluation” (Molecules : A Journal of Synthetic Chemistry and Natural …, 2017).
≈ marks a conversion by molar mass, not a printed value.

Key:
Candida species = test: Anticandidal broth microdilution, results summarised over all strains; format: cell-based; conditions: summary over all four Candida strains; for MIC50: Candida, read-out: MIC50 against Candida species
Description: (§1) Synthesized compounds (5a-5ad) were evaluated for anticandidal activity against C. albicans (ATCC 24433), C. krusei (ATCC 6258), C. parapsilosis (ATCC 22019) and C. [NT] 90030). MIC50 values were evaluated via fluorometric measurements, using resazurin solution [56, 57]. […] [NT] 90030). MIC readings were carried out twice for each chemical agent. The yeasts were maintained in RPMI after overnight incubation at 37 °C. The inocula of test microorganisms adjusted to match the turbidity of a MacFarland 0.5 standard tube as determined with a spectrophotometer and the final inoculum size was 0.5-2.5 × 10^5 cfu/mL for antifungal assay. Testing was carried out in RPMI at pH = 7 and the two-fold serial dilutions technique was applied. The last well on the microplates containing only inoculated broth was kept as controls and the last well with no growth of microorganism was recorded to represent the MIC50 expressed in μg/mL. For the antifungal assays, the compounds were dissolved in DMSO. […] The completed plates were incubated for 24 h. At the end of the incubation, resazurin (20 μg/mL) was added into each well to control whether the growth in wells. Then, plates were allowed to incubate for 2 h. MIC50 values were determined using a microplate reader at […].

[1] = system: NIH/3T3 mouse embryonic fibroblast cell line (ATCC CRL1658); test: MTT cytotoxicity assay; format: cell-based; conditions: NIH3T3, tested 800 to 0.78 µg/mL, read-out: IC50 on NIH/3T3 mouse embryonic fibroblast cell lines
From the text: Toxicity is a key cause of failure at all steps of the new drug development process. The most part of safety-related problems occur at preclinical phases to predict preclinical safety liabilities earlier in the new drug development process. This approach allows to design and/or selection of better drug candidates that have more potentials to be marketed drugs. […] Cytotoxicities of selected compounds (5m, 5o, 5r, 5w, 5y, 5ab, and 5ad), displaying strong anticandidal activity and good predicted pharmacokinetics, were determined against NIH/3T3 mouse embryonic fibroblast cell lines (ATCC CRL1658).
Cytotoxicity was tested using the NIH/3T3 mouse embryonic fibroblast cell line (ATCC® CRL-1658™, London, UK). NIH/3T3 cells were incubated according to the supplier’s recommendations and they were seeded at 1 × 10^4 cells into each well of 96-well plates. MTT assay was performed as previously described. The compounds were tested in a concentration range of 800 µg/mL and 0.78 µg/mL concentrations. Percent inhibition was calculated for each concentration according to the formula below, and IC50 values were determined by plotting a concentration–response curve of inhibition percent versus compound concentrations tested.

[2] = system: C. parapsilosis (ATCC 22019); test: Anticandidal broth microdilution (EUCAST EDef 7.1), resazurin fluorometric readout; format: cell-based; conditions: Lodderomyces parapsilosis, ATCC22019; ATCC 22019, RPMI pH 7, 24 h incubation; read-out: MIC50 C. parapsilopsis
Description: as §1

C. albicans (ATCC 24433) = test: as above; format: cell-based; conditions: Candida albicans, ATCC24433; ATCC 24433, RPMI pH 7, 24 h incubation
Description: as §1

C. krusei (ATCC 6258) = test: as above; format: cell-based; conditions: Pichia kudriavzevii, ATCC6258; ATCC 6258, RPMI pH 7, 24 h incubation
Description: as §1

C. glabrata (ATCC 90030) = test: as above; format: cell-based; conditions: Nakaseomyces glabratus, ATCC90030; ATCC 90030, RPMI pH 7, 24 h incubation
Description: as §1

| Compound | MIC50 (Candida species) [µg/mL] | melting point [°C] | IC50 [1] [µg/mL] | MIC50 [2] [µg/mL] | MIC50 (C. albicans (ATCC 24433)) [µg/mL] | MIC50 (C. krusei (ATCC 6258)) [µg/mL] | MIC50 (C. glabrata (ATCC 90030)) [µg/mL] | anticandidal activity against Candida strains (in words) (Candida species) |
| --- | --- | --- | --- | --- | --- | --- | --- | --- |
| CCn1c(SCC(=O)c2ccc(F)cc2)nnc1-c1ccc(-c2nc3ccc(F)cc3[nH]2)cc1 [Compound 5ab, 2-((4-Ethyl-5-(4-(6-fluoro-1H-benzimidazol-2-yl)phenyl)-4H-1,2,4-triazol-3-yl)thio)-1-(4-fluorophenyl)ethan-1-one] | 0.78 to 1.56 (≈ 1.64 to 3.28 µM) | 251 | 43.1 ± 2.88 (≈ 90.7 µM) | 0.78 (≈ 1.64 µM) | 0.78 (≈ 1.64 µM) | 1.56 (≈ 3.28 µM) | 1.56 (≈ 3.28 µM) | – |
| Cn1c(SCC(=O)c2ccc(F)cc2)nnc1-c1ccc(-c2nc3ccc(Cl)cc3[nH]2)cc1 [Compound 5m, 2-((5-(4-(6-Chloro-1H-benzimidazol-2-yl)phenyl)-4-methyl-4H-1,2,4-triazol-3-yl)thio)-1-(4-fluorophenyl)ethan-1-one] | 0.78 to 1.56 (≈ 1.63 to 3.26 µM) | 274.5 | 17.4 ± 0.89 (≈ 36.4 µM) | 0.78 (≈ 1.63 µM) | 0.78 (≈ 1.63 µM) | 0.78 (≈ 1.63 µM) | 1.56 (≈ 3.26 µM) | – |
| Cn1c(SCC(=O)c2ccc(Cl)cc2Cl)nnc1-c1ccc(-c2nc3ccc(Cl)cc3[nH]2)cc1 [Compound 5n, 2-((5-(4-(6-Chloro-1H-Benzimidazol-2-yl)phenyl)-4-methyl-4H-1,2,4-triazol-3-yl)thio)-1-(2,4-dichlorophenyl)ethan-1-one] | 1.56 to 3.12 (≈ 2.95 to 5.9 µM) | 274.2 | – | 3.12 (≈ 5.9 µM) | 1.56 (≈ 2.95 µM) | 1.56 (≈ 2.95 µM) | 3.12 (≈ 5.9 µM) | – |
| Cn1c(SCC(=O)c2ccc(F)cc2F)nnc1-c1ccc(-c2nc3ccc(Cl)cc3[nH]2)cc1 [Compound 5o, 2-((5-(4-(6-Chloro-1H-benzimidazol-2-yl)phenyl)-4-methyl-4H-1,2,4-triazol-3-yl)thio)-1-(2,4-difluorophenyl)ethan-1-one] | 0.78 to 1.56 (≈ 1.57 to 3.15 µM) | 264.9 | 1.63 ± 0.02 (≈ 3.29 µM) | 0.78 (≈ 1.57 µM) | 0.78 (≈ 1.57 µM) | 1.56 (≈ 3.15 µM) | 1.56 (≈ 3.15 µM) | – |
| CCn1c(SCC(=O)c2ccccc2)nnc1-c1ccc(-c2nc3ccc(Cl)cc3[nH]2)cc1 [Compound 5p, 2-((5-(4-(6-Chloro-1H-benzimidazol-2-yl)phenyl)-4-ethyl-4H-1,2,4-triazol-3-yl)thio)-1-phenylethan-1-one] | – | 248.5 | – | 25 (≈ 52.7 µM) | 12.5 (≈ 26.4 µM) | 50 (≈ 105 µM) | 12.5 (≈ 26.4 µM) | did not show strong activity |
| CCn1c(SCC(=O)c2ccc(Cl)cc2)nnc1-c1ccc(-c2nc3ccc(Cl)cc3[nH]2)cc1 [Compound 5q, 2-((5-(4-(6-Chloro-1H-benzimidazol-2-yl)phenyl)-4-ethyl-4H-1,2,4-triazol-3-yl)thio)-1-(4-chlorophenyl)ethan-1-one] | – | 252.2 | – | 12.5 (≈ 24.6 µM) | 6.25 (≈ 12.3 µM) | 12.5 (≈ 24.6 µM) | 12.5 (≈ 24.6 µM) | did not show strong activity |
| CCn1c(SCC(=O)c2ccc(F)cc2)nnc1-c1ccc(-c2nc3ccc(Cl)cc3[nH]2)cc1 [Compound 5r, 2-((5-(4-(6-Chloro-1H-benzimidazol-2-yl)phenyl)-4-ethyl-4H-1,2,4-triazol-3-yl)thio)-1-(4-fluorophenyl)ethan-1-one] | 0.78 to 1.56 (≈ 1.59 to 3.17 µM) | 265.5 | 13.9 ± 0.69 (≈ 28.3 µM) | 1.56 (≈ 3.17 µM) | 0.78 (≈ 1.59 µM) | 1.56 (≈ 3.17 µM) | 0.78 (≈ 1.59 µM) | – |
| CCn1c(SCC(=O)c2ccc(Cl)cc2Cl)nnc1-c1ccc(-c2nc3ccc(Cl)cc3[nH]2)cc1 [Compound 5s, 2-((5-(4-(6-Chloro-1H-benzimidazol-2-yl)phenyl)-4-ethyl-4H-1,2,4-triazol-3-yl)thio)-1-(2,4-dichlorophenyl)ethan-1-one] | 1.56 to 3.12 (≈ 2.87 to 5.75 µM) | 192 | – | 1.56 (≈ 2.87 µM) | 1.56 (≈ 2.87 µM) | 3.12 (≈ 5.75 µM) | 3.12 (≈ 5.75 µM) | – |
| CCn1c(SCC(=O)c2ccc(F)cc2F)nnc1-c1ccc(-c2nc3ccc(Cl)cc3[nH]2)cc1 [Compound 5t, 2-((5-(4-(6-Chloro-1H-benzimidazol-2-yl)phenyl)-4-ethyl-4H-1,2,4-triazol-3-yl)thio)-1-(2,4-difluorophenyl)ethan-1-one] | 0.78 to 1.56 (≈ 1.53 to 3.06 µM) | 250.6 | – | 0.78 (≈ 1.53 µM) | 0.78 (≈ 1.53 µM) | 0.78 (≈ 1.53 µM) | 1.56 (≈ 3.06 µM) | – |
| Cn1c(SCC(=O)c2ccccc2)nnc1-c1ccc(-c2nc3ccc(F)cc3[nH]2)cc1 [Compound 5u, 2-((5-(4-(6-Fluoro-1H-benzimidazol-2-yl)phenyl)-4-methyl-4H-1,2,4-triazol-3-yl)thio)-1-phenylethan-1-one] | – | 277.1 | – | 50 (≈ 113 µM) | 12.5 (≈ 28.2 µM) | 50 (≈ 113 µM) | 25 (≈ 56.4 µM) | did not show strong activity |
| Cn1c(SCC(=O)c2ccc(Cl)cc2)nnc1-c1ccc(-c2nc3ccc(F)cc3[nH]2)cc1 [Compound 5v, 1-(4-Chlorophenyl)-2-((5-(4-(6-fluoro-1H-benzimidazol-2-yl)phenyl)-4-methyl-4H-1,2,4-triazol-3-yl)thio)ethan-1-one] | 1.56 to 3.12 (≈ 3.26 to 6.53 µM) | 252.9 | – | 12.5 (≈ 26.2 µM) | 12.5 (≈ 26.2 µM) | 12.5 (≈ 26.2 µM) | 6.25 (≈ 13.1 µM) | did not show strong activity |
| Cn1c(SCC(=O)c2ccc(F)cc2F)nnc1-c1ccc(-c2nc3ccc(F)cc3[nH]2)cc1 [Compound 5y, 1-(2,4-Difluorophenyl)-2-((5-(4-(6-fluoro-1H-benzimidazol-2-yl)phenyl)-4-methyl-4H-1,2,4-triazol-3-yl)thio)ethan-1-one] | 0.78 to 1.56 (≈ 1.63 to 3.25 µM) | 263.2 | 11.1 ± 0.57 (≈ 23.2 µM) | 1.56 (≈ 3.25 µM) | 0.78 (≈ 1.63 µM) | 0.78 (≈ 1.63 µM) | 1.56 (≈ 3.25 µM) | – |
